In paper PMC9199882 (Clinical and Translational Science, 2022):
Read-outs that look alike come from different tables or passages of the source.

Experiments:
[1] = Midazolam and 1-hydroxymidazolam plasma PK, DDI study stage 1
CYP3A = assay: Effect of asciminib on CYP3A substrate midazolam; settings: for AUClast G mean ratio (90% CI) / Cmax G mean ratio (90% CI): midazolam + asciminib / midazolam
[2] = midazolam 7.5 mg oral; cited from earlier work
prothrombin time = assay: Prothrombin pharmacodynamic analysis of warfarin; settings: warfarin + asciminib vs warfarin alone
[3] = warfarin 10 mg oral, cited from earlier work
[4] = cited from earlier work
CYP2C8 = assay: Effect of asciminib on CYP2C8 substrate repaglinide; settings: for AUClast G mean ratio (90% CI) / Cmax G mean ratio (90% CI): repaglinide + asciminib / repaglinide
[5] = patients with CML, 40 mg bid, ref Novartis, unpublished data, cited from earlier work
CYP2C9 = assay: Effect of asciminib on CYP2C9 substrate warfarin
[6] = patients with CML, doses of up to 200 mg b.i.d.; cited from earlier work
blood glucose = assay: Blood glucose concentration-time profile of repaglinide; format: in vivo, human; settings: blood glucose concentration–time profiles, 6 h post-dose, days 1 and 5
[7] = Repaglinide plasma PK, DDI study stage 2
[8] = for Cmax, adjusted G mean: linear mixed model
[9] = midazolam at asciminib steady-state vs midazolam alone
[10] = ref Novartis, unpublished data, 9, 10
[11] = repaglinide in the presence of asciminib vs alone
[12] = warfarin 5 mg oral + asciminib 40 mg b.i.d. steady-state, day 11, plasma
[13] = warfarin 5 mg oral alone, day 1, plasma
[14] = warfarin + asciminib 40 mg b.i.d. steady-state
[15] = warfarin at asciminib steady-state vs warfarin alone

Structure (SMILES): OCc1ncc2n1-c1ccc(Cl)cc1C(c1ccccc1F)=NC2 [1-hydroxymidazolam, 1‐hydroxymidazolam]
- metabolite‐to‐parent ratio of G mean AUCinf ([1]; midazolam alone): 0.31
- metabolite‐to‐parent ratio of G mean AUClast ([1]; midazolam alone): 0.31
- metabolite‐to‐parent ratio of G mean AUCinf ([1]; midazolam with asciminib): 0.29
- metabolite‐to‐parent ratio of G mean AUClast ([1]; midazolam with asciminib): 0.27

Structure (SMILES): Cc1ncc2n1-c1ccc(Cl)cc1C(c1ccccc1F)=NC2 [Midazolam, midazolam]
- AUC(0-inf) ([1]; human, plasma, oral, AUCinf, adjusted G mean, midazolam alone, linear mixed model): 37.4 ng·h/mL
- AUC(0-t) ([1]; human, plasma, oral, AUClast, adjusted G mean, midazolam alone, linear mixed model): 35.4 ng·h/mL
- Cmax ([1]; human, plasma, oral, Cmax, adjusted G mean, midazolam alone, linear mixed model): 15.9 ng/mL
- Tmax ([1]; human, plasma, po, 4 mg): 0.51 h
- Vd/F ([1]; human, plasma, po, 4 mg): 413 L
- CL/F, G mean (GCV%) ([1]; midazolam 4 mg oral + asciminib 40 mg b.i.d. steady-state, day 11): 83.0 (38.8) L/h
- AUClast, G mean (GCV%) ([1]; midazolam 4 mg oral + asciminib 40 mg b.i.d. steady-state, day 11, plasma): 44.9 (38.1) ng × h/ml
- CL/F, G mean (GCV%) ([1]; midazolam 4 mg oral alone, day 1): 107 (31.2) L/h
- AUClast G mean ratio (90% CI) (CYP3A): 1.27
- Cmax G mean ratio (90% CI) (CYP3A): 1.11
- AUClast G mean ratio (90% CI) (CYP3A; listed as midazolam): 1.27 (1.14, 1.41)
- Cmax G mean ratio (90% CI) (CYP3A; listed as midazolam): 1.11 (0.96, 1.28)
- increase in AUCinf (CYP3A; [9]): 28%
- increase in AUClast (CYP3A; [9]): 27%
- increase in Cmax (CYP3A; [9]): 11%
- median Cmax [2]: 63.1 ng/mL
- median T 1/2 [2]: 3.2 h
- median Tmax [2]: 0.34 h

Structure (SMILES): CC(=O)CC(c1ccccc1)c1c(O)c2ccccc2oc1=O (stereo not drawn) [Warfarin, warfarin]
- anticoagulation activity on co‐administration with asciminib (prothrombin time): unaffected
- Cmax ([3]; read-out: median Cmax): 1700 to 2000 nM
- median Cmax ([3]; converted from μM): 500 to 600 ng/mL
- median Tmax [3]: 2 h

Structure (SMILES): O=C(Nc1ccc(OC(F)(F)Cl)cc1)c1cnc(N2CC[C@@H](O)C2)c(-c2ccn[nH]2)c1 [Asciminib, asciminib]
- half‐life (T 1/2) [4]: 7 to 15 h
- unchanged asciminib in urine [4]: 2.5%
- unchanged asciminib share of drug‐related exposure in plasma [4]: > 90%
- mean recovery from feces ([4]; disposition studies in humans): 80%
- clearance pathway: direct glucuronidation by UGT ([4]; mainly UGT2B7, UGT2B17, UGT1A3/4, ref Novartis, unpublished data, 9, 10): 27.9%
- clearance pathway: oxidation by CYP3A4 ([4]; part of the CYP oxidation, ref Novartis, unpublished data, 9, 10): 36%
- median time to reach the maximum plasma concentration (Tmax) ([4]; post‐dose): 2 to 3 h
- clearance pathway: biliary secretion by BCRP [4, 10]: 31.1%
- clearance pathway: oxidation by cytochrome P450 enzymes [4, 10]: 37.8%
- effect on CYP2C8 (CYP2C8; asciminib 40 mg b.i.d.): no meaningful effect
- Cmax at steady‐state, unbound asciminib [5]: 48 nM
- Cmax ([5]; read-out: Cmax at steady‐state, total asciminib): 1770 nM
- inhibitor classification, CYP3A (CYP3A; human, in vivo): weak inhibitor
- inhibitor classification, CYP2C9 (CYP2C9; asciminib 40 mg b.i.d.): weak inhibitor
- maximum tolerated dose [6]: not reached

Structure (SMILES): CCOc1cc(CC(=O)N[C@@H](CC(C)C)c2ccccc2N2CCCCC2)ccc1C(=O)O [Repaglinide, repaglinide]
- AUClast G mean ratio (90% CI) (CYP2C8): 1.09
- Cmax G mean ratio (90% CI) (CYP2C8): 1.14
- AUClast G mean ratio (90% CI) (CYP2C8; listed as repaglinide): 1.09 (1.03, 1.15)
- Cmax G mean ratio (90% CI) (CYP2C8; listed as repaglinide): 1.14 (1.01, 1.28)
- increase in AUCinf (CYP2C8; [11]): 8%
- increase in AUClast (CYP2C8; [11]): 9%
- increase in Cmax (CYP2C8; [11]): 14%
- glucose‐metabolizing activity alone or in combination with asciminib (blood glucose): no difference
- Cmax ([7]; human, plasma, oral, 0.5 mg): 6.71 ng/mL
- Cmax ([7]; human, plasma, po, 0.5 mg): 6.71 ng/mL
- Tmax ([7]; human, plasma, po, 0.5 mg): 0.75 h
- Vd/F ([7]; human, plasma, po, 0.5 mg): 162 L
- CL/F, G mean (GCV%) ([7]; repaglinide 0.5 mg oral + asciminib 40 mg b.i.d. steady-state, day 5): 43.2 (38.2) L/h
- T 1/2, G mean (GCV%) ([7]; repaglinide 0.5 mg oral + asciminib 40 mg b.i.d. steady-state, day 5, plasma): 2.09 (76.3) h
- CL/F, G mean (GCV%) ([7]; repaglinide 0.5 mg oral alone, day 1): 46.3 (36.8) L/h
- T 1/2, G mean (GCV%) ([7]; repaglinide 0.5 mg oral alone, day 1, plasma): 2.42 (46.2) h

Structure (SMILES): CC(=O)C[C@@H](c1ccccc1)c1c(O)c2ccccc2oc1=O [S‐Warfarin, S‐warfarin]
- Cmax, G mean (GCV%) [8, 12]: 225 (17.2) ng/ml
- Tmax, median (range) [8, 12]: 2.00 (0.94–3.99) h
- Cmax, G mean (GCV%) [8, 13]: 209 (18.6) ng/ml
- Tmax, median (range) [8, 13]: 2.00 (0.99–4.00) h
- Cmax, adjusted G mean [8, 14]: 227 ng/mL
- Cmax, adjusted G mean ([8]; warfarin alone): 209 ng/mL
- increase in AUClast (CYP2C9; [15]): 39%
- increase in Cmax (CYP2C9; [15]): 9%

Structure (SMILES): CC(=O)C[C@H](c1ccccc1)c1c(O)c2ccccc2oc1=O [R‐Warfarin, R‐warfarin]
- Cmax, G mean (GCV%) [8, 12]: 213 (20.4) ng/ml
- Tmax, median (range) [8, 12]: 2.95 (0.94–11.7) h
- Cmax, G mean (GCV%) [8, 13]: 196 (19.6) ng/ml
- Tmax, median (range) [8, 13]: 2.01 (0.99–12.0) h
- Tmax, median (range) ([8]; warfarin 5 mg oral alone, day 1, plasma, listed as R‐warfarin): 2.0 h
- Cmax, adjusted G mean [8, 14]: 215 ng/mL
- Cmax, adjusted G mean ([8]; warfarin alone): 196 ng/mL
- increase in AUCinf (CYP2C9; [15]): 25%
- increase in AUClast (CYP2C9; [15]): 24%
- increase in Cmax (CYP2C9; [15]): 10%
